For this assay, the target named is T1, acetylcholine muscarinic M1 receptor (Homo sapiens, UniProt P11229).
T1 construct: expressed in transfected cells; host or cells: CHOnfat (CHO cells; also called CHOK1/hM1)
T1 sequence (P11229 1-460): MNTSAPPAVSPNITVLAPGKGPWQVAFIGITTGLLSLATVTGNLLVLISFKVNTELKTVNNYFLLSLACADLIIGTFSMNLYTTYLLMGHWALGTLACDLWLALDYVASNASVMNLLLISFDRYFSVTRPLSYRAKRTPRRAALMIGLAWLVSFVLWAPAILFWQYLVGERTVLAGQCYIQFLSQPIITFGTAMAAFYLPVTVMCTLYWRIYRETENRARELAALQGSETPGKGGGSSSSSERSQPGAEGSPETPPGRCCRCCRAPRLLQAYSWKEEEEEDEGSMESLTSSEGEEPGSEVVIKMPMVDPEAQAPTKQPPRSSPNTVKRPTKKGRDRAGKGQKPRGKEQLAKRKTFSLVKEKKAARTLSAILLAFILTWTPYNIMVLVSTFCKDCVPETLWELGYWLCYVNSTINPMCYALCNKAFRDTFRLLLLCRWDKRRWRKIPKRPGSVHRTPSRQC
Kind of assay: M1 FLIPR assay: intracellular calcium, potentiation of acetylcholine EC20. In kind it is cell-based. As to the method: The assay studies the effect of one or several concentrations of test compounds on basal or acetylcholine-stimulated Ca^2+ levels using FLIPR.
For each compounds of the invention that was evaluated, the compound is prepared and subjected to a pre-incubation period of four minutes. Thereafter, a single EC20 concentration of acetylcholine is added to each well (3 nM final). The intracellular Ca^2+ level of each sample is measured and compared to an acetylcholine control to determine any modulatory activity.
Cells: CHOnfat/hM1, hM2, hM3 or hM4 cells are plated 24 hours before the assay at a density of 18,000 cells/well (100 μL) in a 384 well plate. CHOnfat/hM1 and CHOnfat/hM3 Growth Medium: 90% DMEM (Hi Glucose); 10% HI FBS; 2 mM L-glutamine; 0.1 mM NEAA; Pen-Strep; and 1 mg/ml Geneticin, are added. For M2Gqi5CHOnfat and M4Gqi5CHOnfat cells, an additional 600 μg/ml hygromycin is added.
Dye Loading Buffer: Assay Buffer plus 1% Fetal Bovine Serum and Fluo-4AM/Pluronic Acid Mixture. […] 20% Pluronic acid solution stock, with a concentration of 0.04% in Buffer, 0.02% in Assay. 65 μL of 2 mM Fluo-4AM are mixed with 130 μL of 20% pluronic acid. The resulting solution and 650 μL FBS is added to the assay buffer for a total volume of 65 mL.
Positive Controls: 4-Br-A23187: 10 mM in DMSO, final concentration 10 μM. Acetylcholine: […], working stock at both 20 μM and 30 μM in assay buffer, final concentration of 10 μM. This is used to check the maximum stimulation of the CHOK1/hM1 cells. 20 μM (2×) acetylcholine is added in the preincubation part of the assay, and the 30 μM (3×) stock is added in the second part. (EC20)Acetylcholine: 10 mM in water, working stock of 9 nM (3×), and final concentration in assay is 3 nM. This is used after the preincubation with test compounds. Addition of the EC20 Acetylcholine to each well with a test compound will ascertain any modulator activity. 24 wells contain 3 nM Acetylcholine alone as a control.
Four 96-well plates are combined into a 384-well plate using Mosquito Nanoliter Pipetting System by transferring 1 μl of serial diluted compounds to each well, and 1 mM acetylcholine (100× stock concentration) were added as a control. Using Temo, 49 μl assay buffer is added to each well of the 384-well plate right before assay.
In a 96-well Whatman 2 ml Uniplate, 9 nM Acetylcholine (3×) is pipetted into wells corresponding to the screening compounds, and into control wells. The 30 μM acetylcholine control (3×) is added into control wells, and the 3× agonist plate is transferred into a 384 well plate.
Cells are washed three times with 100 μL of buffer, leaving 30 μL of buffer in each well. Using Multimek, 30 μL of Dye Loading Buffer is added into each well and incubated at 37° C., 5% CO2 for up to one hour.
After 60 minutes, the cells are washed three times with 100 μL of buffer, leaving 30 μL of buffer in each well. The cell plate, screening plate, and agonist addition plates are placed on the platform in the FLIPR and the door closed. A signal test to check background fluorescence and basal fluorescence signal is performed. Laser intensity is adjusted if necessary.
Four minutes of pre-incubation with the test compounds is provided to determine any agonist activity on the M1 receptor by comparison to the […] acetylcholine control. After pre-incubation, the EC20 value of acetylcholine (3 nM final) is added to determine any modulator activity.
Background: A change in cytosolic calcium serves as a functional read-out for many receptors and channels.

Where [1] appears, read: inflection point value from FLIPR assay, CHOnfat/hM1 cells, 4 min pre-incubation, then acetylcholine EC20 (3 nM final), Table 1, Formula (III), read-out: M1 IP Value.
Where [2] appears, read: M1 activity in a FLIPR assay, Table 3, Examples 1-12, read-out: M1 Potential.

EC50 data for 23 compounds are collected here from patent publication US8883850B2, “Naphthalene carboxamide M1 receptor positive allosteric modulators” (Merck Sharp & Dohme Corp., priority 2010, dated 2014).

Read-outs that look alike come from different tables or passages of the source.

As to `COc1c(C(=O)O)cc(Cc2ccc(-c3ccccc3)cc2)c2ccccc12` [Compound 1-1], the EC50 under setting [1] was 872 nM.
As to `COc1c(C(=O)O)cc(Cc2ccc(NC(C)=O)cc2)c2ccccc12` [Compound 1-2], under setting [1], the EC50 turned out to be 1550 nM.
On the same count and under the same terms, for `COc1c(C(=O)N[C@H]2CCCC[C@@H]2O)cc(Cc2ccc(-c3cccnc3)nc2)c2ccccc12` [Compound 1-3] the value was 24 nM; for `COc1ccc(Cc2cc(C(=O)N[C@H]3CCCC[C@@H]3O)c(OC)c3ccccc23)cn1` [Compound 1-7], 280 nM.
On the same count and under the same terms, for `COc1c(C(=O)N[C@H]2CCCC[C@@H]2O)cc(Cc2ccc(SC)nc2)c2ccccc12` [Compound 1-9] the value was 169 nM; for `COc1c(C(=O)N[C@H]2CCCC[C@@H]2O)cc(Cc2ccnc(C)c2)c2ccccc12` [Compound 1-11], 224 nM; for `COc1cc(Cc2cc(C(=O)N[C@H]3CCCC[C@@H]3O)c(OC)c3ccccc23)ccn1` [Compound 1-12], 140 nM.
The same measure, in the same setting: for `COc1c(C(=O)N[C@H]2CCOC[C@@H]2O)cc(Cc2ccc(C)nc2)c2ccccc12` [Compound 1-13] the value was 87 nM.
On to `COc1c(C(=O)N[C@H]2CCOC[C@@H]2O)cc(Cc2ccc(-c3ccnc(C)c3)nc2)c2ccccc12` [Compound 1-14], for which the EC50 under setting [1] was 6.8 nM.
Same read-out and setting: for `COc1c(C(=O)N[C@H]2CCOC[C@@H]2O)cc(Cc2ccc(-c3ccc(C)nc3)nc2)c2ccccc12` [Compound 1-15] the value was 22 nM.
Regarding `C=CCOc1c(C(=O)N[C@H]2CCCC[C@@H]2O)cc(Cc2ccc(Cl)nc2)c2ccccc12` [Compound 2-2], the EC50 (inflection point value from FLIPR assay, CHOnfat/hM1 cells, 4 min pre-incubation, then acetylcholine EC20 (3 nM final), Table 2, Formula (IV), read-out: M1 IP Value) was 1140 nM.
On to `COc1ccc(Cc2cc(C(=O)O)c(OC)c3ccccc23)cc1` [Example 1, 1-Methoxy-4-(4-methoxybenzyl)-2-naphthoic acid], for which the EC50 under setting [2] worked out at 3320 nM.
Turning to `COc1c(C(=O)O)cc(Cc2ccc(-n3cccn3)cc2)c2ccccc12` [Example 2, 1-Methoxy-4-[4-(1H-pyrazol-1-yl)benzyl]-2-naphthoic acid], under setting [2], the EC50 was 574 nM.
On the same count and under the same terms, for `COc1c(C(=O)N[C@H]2CCCC[C@@H]2O)cc(Cc2ccc(Cl)nc2)c2ccccc12` [Example 3, 4-[(6-Chloropyridin-3-yl)methyl]-N-[(1S,2S)-2-hydroxycyclohexyl]-1-methoxy-2-naphthamide] the value was 260 nM; for `COc1c(C(=O)N[C@H]2CCCC[C@@H]2O)cc(Cc2ccc(C)nc2)c2ccccc12` [Example 4], 121 nM.
With `COc1c(C(=O)N[C@H]2CCCC[C@@H]2O)cc(Cc2ccc(-c3cnn(C)c3)nc2)c2ccccc12` [Example 5, N-[(1S,2S)-2-Hydroxycyclohexyl]-1-methoxy-4-{[6-(1-methyl-1H-pyrazol-4-yl)pyridine-3-yl]methyl}-2-naphthamide], under setting [2], the EC50 was 17 nM.
Same read-out and setting: the value for `O=C(N[C@H]1CCCC[C@@H]1O)c1cc(Cc2ccc(-n3cccn3)nc2)c2ccccc2c1O` [Example 6, 1-Hydroxy-N-[(1S,2S)-2-hydroxycyclohexyl]-4-{[6-(1H-pyrazol-1-yl)pyridine-3-yl]methyl}-2-naphthamide] was 4710 nM.
The same measure, in the same setting: the value for `COc1c(C(=O)N[C@H]2CCCC[C@@H]2O)cc(Cc2ccc(-n3cccn3)nc2)c2ccccc12` [Example 7, N-[(1S,2S)-2-Hydroxycyclohexyl]-1-methoxy-4-{[6-(1H-pyrazol-1-yl)pyridine-3-yl]methyl}-2-naphthamide] was 82 nM.
Same read-out and setting: for `COc1c(C(=O)N[C@H]2CCCC[C@@H]2O)cc(CN2CCN(c3cnn(C)c3)CC2)c2ccccc12` [Example 8, N-[(1S,2S)-2-Hydroxycyclohexyl]-1-methoxy-4-{[4-(1-methyl-1H-pyrazol-4-yl)piperazin-1-yl]methyl}-2-naphthamide] the value was 3880 nM; for `CCc1ccc(Cc2cc(C(=O)N[C@H]3CCCC[C@@H]3O)c(OC)c3ccccc23)cn1` [Example 9, N-[(1S,2S)-2-Hydroxycyclohexyl]-1-methoxy-4-[(6-ethylpyridin-3-yl)methyl]-2-naphthamide], 190 nM; for `COc1c(C(=O)N[C@H]2CCOC[C@@H]2O)cc(Cc2ccc(Cl)nc2)c2ccccc12` [Example 10, 4-[(6-Chloropyridin-3-yl)methyl]-N-[(3R,4S)-3-hydroxytetrahydro-2H-pyran-4-yl]-1-methoxy-2-naphthamide], 56 nM.
Turning to `COc1c(C(=O)N[C@H]2CCCC[C@@H]2O)cc(Cc2ccnc(SC)c2)c2ccccc12` [Example 11, N-[(1S,2S)-2-Hydroxycyclohexyl]-1-methoxy-4-{[2-(methylthio)pyridin-4-yl]methyl}-2-naphthamide], the EC50 under setting [2] turned out to be 281 nM.
As to `CCOc1c(C(=O)N[C@H]2CCCC[C@@H]2O)cc(Cc2ccc(Cl)nc2)c2ccccc12` [Example 12], the EC50 under setting [2] is 985 nM.
